From patent publication US20140249139A1, “Quinazoline Derivatives” (NOVARTIS AG, priority 2011, published 2014)
pIC50: −log10 of the molar value.

Key:
murine B cells = experiment: Murine B cell activation: CD86 expression on CD19 positive B cells after anti-IgM stimulation; assay type: cell-based; settings: Balb/c mouse splenocytes, anti-IgM 30 μg/ml, 24 hours, read-out: mCD86/ IC50 CD86
Method: PI3Kδ has been recognized to modulate B cell function when cells are stimulated through the B cell receptor (BCR) (Okkenhaug et al. Science 297:1031 (2002). For assessing the inhibitory property of compounds on B cell activation, the upregulation of activation markers CD86 and CD69 on murine B cells derived from mouse spleen […] is measured after stimulation with anti-IgM. CD69 is a well known activation marker for B and T cells (Sancho et al. Trends Immunol. 26:136 (2005). CD86 (also known as B7-2) is primarily expressed on antigen-presenting cells, including B cells. Resting B cells express CD86 at low levels, but upregulate it following stimulation of e.g. the BCR or IL-4 receptor. CD86 on a B cell interacts with CD28 on T cells. This interaction is required for optimal T cell activation and for the generation of an optimal IgG1 response (Carreno et al. Annu Rev Immunol. 20:29 (2002)).
Spleens from Balb/c mice were collected, splenocytes were isolated and washed twice with RPMI containing 10% foetal bovine serum (FBS), 10 mM HEPES, 100 Units/ml penicilline/streptomycine. RPMI supplemented in this way is subsequently referred to as medium. The cells were adjusted to 2.5×10^6 cells/ml in medium and 200 μl cell suspension ([…]) were added to the appropriate wells of 96 well plates.
Then the cells were stimulated by adding 50 μl anti-IgM mAb in medium (final concentration: 30 μg/ml). After incubation for 24 hours at 37° C., the cells were stained with the following antibody cocktails: anti-mouse CD86-FITC, anti-mouse CD69-PerCP-Cy5.5, anti-mouse CD19-PerCP for the assessment of B cells, and anti-mouse CD3-FITC, anti-mouse CD69-PE for the assessment of T cells (2 μl of each antibody/well). After one hour at room temperature (RT) in the dark the cells were transferred to 96 Deepwell plates. The cells were washed once with 1 ml PBS containing 2% FBS and after re-suspension in 200 μl the samples were analyzed on a FACS Calibur flow cytometer. Lymphocytes were gated in the FSC/SSC dot plot according to size and granularity and further analyzed for expression of CD19, CD3 and activation markers (CD86, CD69). Data were calculated from dot blots as percentage of cells positively stained for activation markers within the CD19+ or CD3+ population using BD CellQest Software.
For assessing the inhibitory property of compounds, compounds were first dissolved and diluted in DMSO followed by a 1:50 dilution in medium. Splenocytes from Balb/c mice were isolated, re-suspended and transfered to 96 well plates as described above (200 μl/well). The diluted compounds or solvent were added to the plates (25 μl) and incubated at 37° C. for 1 hour. Then the cultures were stimulated with 25 μl anti-IgM mAb/well (final concentration 30 μg/ml) for 24 hours at 37° C. and stained with anti-mouse CD86-FITC and anti-mouse CD19-PerCP (2 μl of each antibody/well). CD86 expression on CD19 positive B cells was quantified by flow cytometry as described above.

PI3K delta = biological target: T1, PI3K delta (Homo sapiens, UniProt O00329); experiment: Enzymatic PI3K delta isoform inhibition (lipid kinase activity, Kinase-Glo); assay type: biochemical; settings: enzymatic assay
T1 construct: for the full-length p110-d subunit are generated and fused by overlapping PCR; His tag (C); made in house; host or cells: baculovirus BV1060; Tn5 (Trichoplusia ni) or TiniPro insect cells
T1 sequence (O00329 with tags, fused parts or gaps limits assumed, species assumed): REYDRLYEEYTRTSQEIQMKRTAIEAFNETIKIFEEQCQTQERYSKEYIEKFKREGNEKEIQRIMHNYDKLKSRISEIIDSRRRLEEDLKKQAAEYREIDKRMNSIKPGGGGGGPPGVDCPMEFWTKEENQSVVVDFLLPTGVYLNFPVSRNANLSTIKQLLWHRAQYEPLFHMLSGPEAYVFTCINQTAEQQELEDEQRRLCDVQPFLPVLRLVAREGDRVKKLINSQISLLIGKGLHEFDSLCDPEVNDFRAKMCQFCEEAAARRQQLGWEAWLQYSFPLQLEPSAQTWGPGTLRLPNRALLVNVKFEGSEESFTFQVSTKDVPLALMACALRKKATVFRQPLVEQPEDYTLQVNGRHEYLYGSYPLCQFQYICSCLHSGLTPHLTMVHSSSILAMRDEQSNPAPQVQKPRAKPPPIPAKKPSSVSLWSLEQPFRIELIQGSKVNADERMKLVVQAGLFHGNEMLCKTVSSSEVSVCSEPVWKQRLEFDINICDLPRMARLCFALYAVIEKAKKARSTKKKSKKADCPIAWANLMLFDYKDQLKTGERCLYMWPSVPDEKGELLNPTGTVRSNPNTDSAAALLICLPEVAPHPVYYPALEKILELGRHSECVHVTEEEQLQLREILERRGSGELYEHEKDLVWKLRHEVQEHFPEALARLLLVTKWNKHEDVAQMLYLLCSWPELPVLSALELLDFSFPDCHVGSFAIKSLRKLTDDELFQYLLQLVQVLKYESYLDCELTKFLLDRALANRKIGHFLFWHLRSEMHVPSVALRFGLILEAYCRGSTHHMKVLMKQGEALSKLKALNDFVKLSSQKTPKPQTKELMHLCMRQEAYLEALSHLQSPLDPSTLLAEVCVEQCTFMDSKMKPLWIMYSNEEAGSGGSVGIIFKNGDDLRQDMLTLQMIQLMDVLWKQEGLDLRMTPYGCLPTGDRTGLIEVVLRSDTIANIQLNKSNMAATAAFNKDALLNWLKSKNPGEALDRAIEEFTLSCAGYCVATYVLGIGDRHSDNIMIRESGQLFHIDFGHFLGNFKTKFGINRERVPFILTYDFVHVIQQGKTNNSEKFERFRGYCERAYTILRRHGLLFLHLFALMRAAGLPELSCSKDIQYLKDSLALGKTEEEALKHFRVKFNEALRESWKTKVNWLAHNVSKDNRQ
Method: (§1) The components of the assay are added per well as follows:
(§2) IC50 is determined by a four parameter curve fitting routine that comes along with “excel fit”.
(§3) Yet alternatively, for an ATP depletion assay, compounds of the formula I to be tested are dissolved in DMSO and directly distributed into a white 384-well plate at 0.5 μl per well. To start the reaction, 10 μl of 10 nM PI3 kinase and 5 μg/ml 1-alpha-phosphatidylinositol (PI) are added into each well followed by 10 μl of 2 μM ATP. The reaction is performed until approx 50% of the ATP is depleted, and then stopped by the addition of 20 μl of Kinase-Glo solution (Promega Corp., Madison, Wis., USA). The stopped reaction is incubated for 5 minutes and the remaining ATP is then detected via luminescence. IC50 values are then determined.

PI3K alpha = biological target: T2, PI3K alpha (Homo sapiens, UniProt P42336); experiment: Enzymatic PI3K alpha isoform inhibition (lipid kinase activity, Kinase-Glo); assay type: biochemical; settings: enzymatic assay
T2 construct: for the p110-a subunit (with a deletion of the first 20 amino acids) are generated; His tag (C); made in house; host or cells: baculovirus BV1075; Tn5 (Trichoplusia ni) or TiniPro insect cells
T2 sequence (P42336 with tags, fused parts or gaps limits assumed, species assumed): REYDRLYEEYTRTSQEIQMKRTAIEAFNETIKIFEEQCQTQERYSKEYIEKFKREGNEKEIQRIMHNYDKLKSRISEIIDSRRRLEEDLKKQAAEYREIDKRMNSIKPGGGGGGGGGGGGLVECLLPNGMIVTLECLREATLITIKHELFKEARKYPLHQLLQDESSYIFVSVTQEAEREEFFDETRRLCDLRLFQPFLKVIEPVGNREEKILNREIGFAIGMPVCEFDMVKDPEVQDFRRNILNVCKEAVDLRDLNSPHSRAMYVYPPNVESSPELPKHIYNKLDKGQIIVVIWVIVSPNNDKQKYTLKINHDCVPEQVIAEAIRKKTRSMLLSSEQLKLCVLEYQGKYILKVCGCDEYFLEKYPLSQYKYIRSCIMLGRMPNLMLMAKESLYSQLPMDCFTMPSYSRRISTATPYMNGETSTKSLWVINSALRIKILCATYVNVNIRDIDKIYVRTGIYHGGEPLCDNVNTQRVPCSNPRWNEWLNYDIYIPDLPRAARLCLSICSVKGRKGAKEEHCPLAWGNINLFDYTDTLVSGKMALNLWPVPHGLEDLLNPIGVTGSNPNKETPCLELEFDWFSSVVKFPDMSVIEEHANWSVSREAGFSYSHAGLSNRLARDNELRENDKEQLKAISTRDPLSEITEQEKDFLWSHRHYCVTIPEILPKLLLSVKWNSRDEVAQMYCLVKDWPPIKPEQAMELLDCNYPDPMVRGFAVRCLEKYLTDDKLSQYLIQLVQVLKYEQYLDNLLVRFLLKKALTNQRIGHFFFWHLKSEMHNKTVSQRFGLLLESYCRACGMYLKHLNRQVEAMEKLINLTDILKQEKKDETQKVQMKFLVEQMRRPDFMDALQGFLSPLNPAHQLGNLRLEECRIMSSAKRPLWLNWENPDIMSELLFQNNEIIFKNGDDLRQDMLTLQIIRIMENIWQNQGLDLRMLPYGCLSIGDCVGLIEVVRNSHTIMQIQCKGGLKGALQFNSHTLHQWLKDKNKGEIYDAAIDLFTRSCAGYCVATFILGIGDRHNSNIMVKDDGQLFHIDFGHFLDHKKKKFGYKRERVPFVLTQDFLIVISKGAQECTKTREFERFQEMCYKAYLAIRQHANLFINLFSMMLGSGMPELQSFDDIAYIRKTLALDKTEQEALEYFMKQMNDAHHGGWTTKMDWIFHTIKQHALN
Method: as §1, §2, §3

| pIC50 (murine B cells) | pIC50 (PI3K delta) | pIC50 (PI3K alpha) | SMILES |
| --- | --- | --- | --- |
| 6.97 | – | – | COc1ccc(-c2ccc3ncnc(-c4cccc(C(=O)N5CCN(C(C)=O)CC5)c4)c3c2)cn1 [Example 12] |
| – | 7.85 | 6.51 | COc1ccc(-c2ccc3ncnc(-c4ccc(C)c(C(=O)N5CCN(C(C)C)CC5)c4)c3c2)cn1 [Example 116, (4-Isopropyl-piperazin-1-yl)-{5-[6-(6-methoxy-pyridin-3-yl)-quinazolin-4-yl]-2-methyl-phenyl}-methanone] |
| – | 7.90 | 6.03 | CCN(CC)S(=O)(=O)c1cc(-c2ccc3ncnc(-c4cccc(C(=O)N5CCN(C)CC5)c4)c3c2)ccc1OC [Example 23] |
| – | 8.22 | 6.76 | COc1ccc(-c2ccc3ncnc(-c4cccc(C(=O)N5CCC(O)CC5)c4)c3c2)cn1 [Example 94, (4-Hydroxy-piperidin-1-yl)-{3-[6-(6-methoxy-pyridin-3-yl)-quinazolin-4-yl]-phenyl}-methanone] |
| – | 8.52 | 7.16 | COc1ncc(-c2ccc3ncnc(-c4cncc(C(=O)N5CCN(C(C)=O)CC5)c4)c3c2)cc1C(F)(F)F [Example 54] |
| – | 7.55 | 5.97 | CN1CCN(C(=O)c2cccc(-c3ncnc4ccc(-c5cnc(N(C)C)nc5)cc34)c2)CC1 [Example 11] |
| – | 8.30 | 6.36 | COc1cc(C(=O)N2CCN(C(C)=O)CC2)cc(-c2ncnc3ccc(-c4ccc(OC)nc4)cc23)c1 [Example 106, 1-(4-{3-Methoxy-5-[6-(6-methoxy-pyridin-3-yl)-quinazolin-4-yl]-benzoyl}-piperazin-1-yl)-ethanone] |
| – | 8.15 | 6.58 | COc1ncc(-c2ccc3ncnc(-c4cccc(C(=O)N5CCNCC5)c4)c3c2)cc1C#N [Example 35] |
| – | 8.35 | 6.91 | COc1ccc(-c2ccc3ncnc(-c4cncc(C(=O)N5CCN(C)C(C)(C)C5)c4)c3c2)cn1 [Example 78, {5-[6-(6-Methoxy-pyridin-3-yl)-quinazolin-4-yl]-pyridin-3-yl}-(3,3,4-trimethyl-piperazin-1-yl)-methanone] |
| – | 8.43 | 6.71 | COc1ccc(-c2ccc3ncnc(-c4cccc(C(=O)N5CCCN(C)CC5)c4)c3c2)cn1 [Example 92, {3-[6-(6-Methoxy-pyridin-3-yl)-quinazolin-4-yl]-phenyl}-(4-methyl-[1,4]diazepan-1-yl)-methanone] |
| – | 8.40 | 7.00 | COc1ccc(-c2ccc3ncnc(-c4cccc(C(=O)N5CCN(C)C(C)(C)C5)c4)c3c2)cn1 [Example 89, {3-[6-(6-Methoxy-pyridin-3-yl)-quinazolin-4-yl]-phenyl}-(3,3,4-trimethyl-piperazin-1-yl)-methanone] |
| – | 7.32 | 5.42 | CN1CCN(C(=O)c2cccc(-c3ncnc4ccc(-c5ccc(NS(C)(=O)=O)c(C(F)(F)F)c5)cc34)c2)CC1 [Example 48] |
| – | 8.15 | 6.51 | COc1ccc(-c2ccc3ncnc(-c4cncc(C(=O)N5CCOC(C)(C)C5)c4)c3c2)cn1 [Example 67] |
| – | 8.24 | 6.74 | COc1ccc(-c2ccc3ncnc(-c4cccc(C(=O)N5CC(C)NC(C)C5)c4)c3c2)cn1 (centres unmarked) [Example 90, (3,5-Dimethyl-piperazin-1-yl)-{3-[6-(6-methoxy-pyridin-3-yl)-quinazolin-4-yl]-phenyl}-methanone] |
| – | 8.15 | 6.74 | CN1CCN(C(=O)c2cccc(-c3ncnc4ccc(-c5ccc(N)nc5)cc34)c2)CC1 [Example 25] |
| – | 7.38 | 5.89 | CN1CCN(C(=O)c2cccc(-c3ncnc4ccc(-c5ccc(N6CCNCC6)nc5)cc34)c2)CC1 [Example 18] |
| – | > 8.52 | 6.90 | COc1ccc(-c2ccc3ncnc(-c4cccc(C(=O)N5CCN(CC(F)(F)F)CC5)c4)c3c2)cn1 [Example 87, {3-[6-(6-Methoxy-pyridin-3-yl)-quinazolin-4-yl]-phenyl}-[4-(2,2,2-trifluoro-ethyl)-piperazin-1-yl]-methanone] |
| – | 8.52 | 6.41 | COc1ncc(-c2ccc3ncnc(-c4cncc(C(=O)N5CCOC(C)(C)C5)c4)c3c2)cc1C(F)(F)F [Example 61] |
| – | 8.05 | 6.38 | COc1ncc(-c2ccc3ncnc(-c4cccc(C(=O)N5CCS(=O)(=O)CC5)c4)c3c2)cc1C#N [Example 28] |
| – | 7.45 | 5.05 | COc1ccc(-c2ccc3ncnc(-c4cccc(C(=O)N5CCN(C)CC5)c4)c3c2)cc1C(=O)N(C)C [Example 49, 2-Methoxy-N,N-dimethyl-5-{4-[3-(4-methyl-piperazine-1-carbonyl)-phenyl]-quinazolin-6-yl}-benzamide] |
| – | 7.65 | 6.31 | COc1ncc(-c2ccc3ncnc(-c4cccc(C(=O)N5CCN[C@H](C)C5)c4)c3c2)cc1C#N [Example 34, 2-Methoxy-5-{4-[3-((R)-3-methyl-piperazine-1-carbonyl)-phenyl]-quinazolin-6-yl}-nicotinonitrile] |
| – | 7.81 | 6.42 | CCN1CCN(C(=O)c2cccc(-c3ncnc4ccc(-c5ccc(OC)nc5)cc34)c2)CC1 [Example 86, (4-Ethyl-piperazin-1-yl)-{3-[6-(6-methoxy-pyridin-3-yl)-quinazolin-4-yl]-phenyl}-methanone] |
| – | 7.85 | 6.36 | COc1ncc(-c2ccc3ncnc(-c4cc(C)cc(C(=O)N5CCN(C(C)=O)CC5)c4)c3c2)cc1C#N [Example 109, 5-{4-[3-(4-Acetyl-piperazine-1-carbonyl)-5-methyl-phenyl]-quinazolin-6-yl}-2-methoxy-nicotinonitrile] |
| – | 7.62 | 5.61 | COc1ccc(-c2ccc3ncnc(-c4cccc(C(=O)N5CCN(C)CC5)c4)c3c2)cc1C(F)(F)F [Example 20] |
| – | > 8.52 | 6.92 | COc1ccc(-c2ccc3ncnc(-c4cccc(C(=O)N5CCS(=O)(=O)CC5)c4)c3c2)cn1 [Example 93, (1,1-Dioxo-1lambda*6*-thiomorpholin-4-yl)-{3-[6-(6-methoxy-pyridin-3-yl)-quinazolin-4-yl]-phenyl}-methanone] |
| – | 8.40 | 6.37 | COc1ncc(-c2ccc3ncnc(-c4cccc(C(=O)N5CCN(C(C)=O)C(C)(C)C5)c4)c3c2)cc1C#N [Example 37] |
| – | 7.64 | 6.33 | COc1ccc(-c2ccc3ncnc(-c4cccc(C(=O)N5CCNC[C@H]5C)c4)c3c2)cn1 [Example 97, {3-[6-(6-Methoxy-pyridin-3-yl)-quinazolin-4-yl]-phenyl}-((R)-2-methyl-piperazin-1-yl)-methanone] |
| – | 7.52 | 5.99 | COc1ncc(-c2ccc3ncnc(-c4cncc(C(=O)N5CCOCC5)c4)c3c2)cn1 [Example 70] |
| – | 8.30 | 6.15 | COc1ccc(-c2ccc3ncnc(-c4cc(Cl)cc(C(=O)N5CCN(C(C)=O)CC5)c4)c3c2)cn1 [Example 107, 1-(4-{3-Chloro-5-[6-(6-methoxy-pyridin-3-yl)-quinazolin-4-yl]-benzoyl}-piperazin-1-yl)-ethanone] |
| – | 7.71 | 6.18 | CN1CCN(C(=O)c2cncc(-c3ncnc4ccc(-c5cnc(N)nc5)cc34)c2)CC1 [Example 60] |
